The target of test [1] is T1, HA-hCB2 (Homo sapiens, UniProt P34972).
T1 construct: gene CNR2
As to the kind of experiment: [3H]CP55, […] competition, membranes. It is filed as binding.

Test [2] deals with T2, HA-hCB1 (Homo sapiens, UniProt P21554).
T2 construct: gene CNR1
Put plainly: [3H]SR141716A competition, membranes. The class given is binding.

The target in test [3] is T3, human CB2 (AtT20-CB2) (Homo sapiens, UniProt P34972).
T3 construct: gene CNR2; full-length, stably transfected in mouse AtT20 cells
Put plainly: FLIPR membrane potential assay, AtT20 cells. It is filed as cell-based. An excerpt: FLIPR membrane potential assay, AtT20 cells on human CB2 (AtT20-CB2)

Test [4] deals with T3, human CB2 (AtT20-CB2). Put plainly: cell-based. As to conditions: for Emax: read-out: hCB2 Max (% CP 55,940); for EC50: read-out: hCB2 pEC50 (converted). How it is done: (§1) Mouse AtT20 neuroblastoma cells stably transfected with human CB1 or human CB2 have been previously described.[43] and were cultured in Dulbecco’s modified Eagle’s medium (DMEM) containing 10% fetal bovine serum (FBS), 100 U penicillin/streptomycin, and 80 μg/mL hygromycin (InvivoGen, San Diego, CA, USA). Cells were passaged at 80% confluency as required. Cells for assays were grown in 75 cm2 flasks and used at 90% confluence. The day before the assay cells were detached from the flask with trypsin/EDTA (Sigma) and resuspended in 10 mL of Leibovitz’s L-15 media supplemented with 1% FBS, 100 U penicillin/streptomycin and 15 mM glucose. The cells were plated in volume of 90 μL in black walled, clear bottomed 96-well microplates (Corning) which had been precoated with poly-L-lysine (Sigma, Australia). Cells were incubated overnight at 37 °C in ambient CO2. Membrane potential was measured using a FLIPR Membrane Potential Assay kit (blue) from Molecular Devices, as described previously.[46] The dye was reconstituted with assay buffer of composition (mM): NaCl 145, HEPES 22, Na2HPO4 0.338, NaHCO3 4.17, KH2PO4 0.441, MgSO4 0.407, MgCl2 0.493, CaCl2 1.26, glucose 5.56 (pH 7.4, osmolarity 315 ± 5). Prior to the assay, cells were loaded with 90 μL/well of the dye solution without removal of the L-15, giving an initial assay volume of 180 μL/well. Plates were then incubated at 37 °C at ambient CO2 for 45 min. Fluorescence was measured using a FlexStation 3 (Molecular Devices) microplate reader with cells excited at a wavelength of 530 nm and emission measured at 565 nm. Baseline readings were taken every 2 s for at least 2 min, at which time either drug or vehicle was added in a volume of 20 μL. The background fluorescence of cells without dye or dye without cells was negligible. Changes in fluorescence were expressed as a percentage of baseline fluorescence after subtraction of the changes produced by vehicle addition. The final concentration of DMSO was 0.1%. Data were analyzed with PRISM (GraphPad Software Inc., San Diego, CA), using four-parameter nonlinear regression to fit concentration-response curves. In all plates, a maximally effective concentration of CP 55,940 was added to allow for normalization between assays.

In test [5] the target is T4, human CB1 (AtT20-CB1) (Homo sapiens, UniProt P21554).
T4 construct: gene CNR1; full-length, stably transfected in mouse AtT20 cells
As to the kind of experiment: cell-based. The following applies: read-out: % activation. The method, then: as §1

Test [6] addresses T1, HA-hCB2. Put plainly: biochemical. Set-up: species or system HEK 293. The following applies: read-out: hCB2 pKi (converted).

Where two headings read alike, the source gives them in different places. Some results are limits rather than exact numbers.

Experimental findings from doi:10.1101/430959v1, “The chemistry and pharmacology of putative synthetic cannabinoid receptor agonist (SCRA) new psychoactive substances (NPS) 5F-PY-PICA, 5F-PY-PINACA, and their analogues” (biorxiv, 2018) are described below.

T4 sequence (P21554 whole entry): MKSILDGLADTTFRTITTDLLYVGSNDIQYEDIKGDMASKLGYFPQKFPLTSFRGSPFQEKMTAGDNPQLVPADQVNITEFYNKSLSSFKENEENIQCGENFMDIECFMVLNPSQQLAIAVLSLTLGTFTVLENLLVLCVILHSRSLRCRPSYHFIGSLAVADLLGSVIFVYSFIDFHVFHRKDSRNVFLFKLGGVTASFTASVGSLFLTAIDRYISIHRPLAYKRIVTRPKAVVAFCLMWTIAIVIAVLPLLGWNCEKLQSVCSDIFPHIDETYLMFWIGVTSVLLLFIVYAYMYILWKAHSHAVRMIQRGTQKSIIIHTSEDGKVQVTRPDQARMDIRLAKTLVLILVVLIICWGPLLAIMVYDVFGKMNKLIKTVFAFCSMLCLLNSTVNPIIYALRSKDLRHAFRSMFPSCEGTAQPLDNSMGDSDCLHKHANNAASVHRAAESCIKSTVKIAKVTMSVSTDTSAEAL
T2 sequence (P21554 whole entry): as above
T3 sequence (P34972 whole entry): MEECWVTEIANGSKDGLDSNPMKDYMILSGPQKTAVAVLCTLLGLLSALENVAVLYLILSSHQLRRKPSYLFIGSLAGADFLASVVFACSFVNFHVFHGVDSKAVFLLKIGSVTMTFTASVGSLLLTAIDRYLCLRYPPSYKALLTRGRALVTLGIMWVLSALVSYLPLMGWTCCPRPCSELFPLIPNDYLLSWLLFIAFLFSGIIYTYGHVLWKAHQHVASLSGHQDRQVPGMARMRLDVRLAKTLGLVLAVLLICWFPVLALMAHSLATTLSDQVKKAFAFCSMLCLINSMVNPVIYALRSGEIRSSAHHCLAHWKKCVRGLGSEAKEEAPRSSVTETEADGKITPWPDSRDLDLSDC
T1 sequence (P34972 whole entry): as above

On to `O=C(c1cn(CCCCCF)c2ccccc12)N1CCCC1` [compound 5, (1-(5-Fluoropentyl)-1H-indol-3-yl)(pyrrolidin-1-yl)methanone], for which the results for the Ki in test [1] and in test [2] were 1740 nM and over 10000 nM, respectively. In test [3], this compound had an EC50 of 338 nM. For the same compound, in test [4], the Emax worked out at 50 ± 3%.

In the case of `O=C(c1cn(CCCCCF)c2ccccc12)N1CCCCC1` [compound 7, (1-(5-Fluoropentyl)-1H-indol-3-yl)(piperidin-1-yl)methanone], the results for the Ki in test [1] (read-out: Ki) and in test [2] (read-out: pKi (converted)) were 363 nM and over 10000 nM, respectively. Further, in test [3] (read-out: EC50), the EC50 was 36.3 nM. Further, the Emax in test [4] is 64 ± 3%.

Take `O=C(c1cn(CCCCCF)c2ccccc12)N1CCCCCC1` [compound 8, Azepan-1-yl(1-(5-fluoropentyl)-1H-indol-3-yl)methanone]: the Ki is 102 nM in test [1] (read-out: Ki) and over 10000 nM in test [2] (read-out: pKi (converted)). Moreover, the EC50 in test [3] (read-out: EC50) came to 29 nM. The Emax in test [4] worked out at 72 ± 3%.

Consider `CCN(CC)C(=O)c1cn(CCCCCF)c2ccccc12` [compound 9, 1-(5-Fluoropentyl)-N,N-diethyl-1H-indole-3-carboxamide], for which the values for the Ki in test [1] (read-out: Ki) and in test [2] (read-out: pKi (converted)) were 1020 nM and over 10000 nM, respectively. Besides, the EC50 in test [3] (read-out: EC50) was found to be 137 nM. Further, the activity at 10 µM in test [5] was 0%. For the same compound, the Emax in test [4] was found to be 53 ± 4%.

Take `CN(C)C(=O)c1cn(CCCCCF)c2ccccc12` [compound 10, 1-(5-Fluoropentyl)-N,N-dimethyl-1H-indole-3-carboxamide]: the Ki in test [1] (read-out: Ki) and in test [2] (read-out: pKi (converted)) was over 10000 nM each time. Besides, the activity at 10 µM in test [5] worked out at 9 ± 4%; in test [4] (read-out: % activation) it was 11 ± 2%.

For `CCCCn1cc(C(=O)N2CCCC2)c2ccccc21` [compound 11, (1-Butyl-1H-indol-3-yl)(pyrrolidin-1-yl)methanone], the Ki in test [1] (read-out: Ki) was over 10000 nM. In addition, the Ki in test [2] (read-out: pKi (converted)) is over 10000 nM. Moreover, the activity at 10 µM in test [5] worked out at 16 ± 9%. Moreover, in test [4], the Emax was found to be 63 ± 9% and the EC50 is 468 nM.

`CCCCCn1cc(C(=O)N2CCCC2)c2ccccc21` [compound 12, (1-Pentyl-1H-indol-3-yl)(pyrrolidin-1-yl)methanone]: the Ki in test [2] (read-out: pKi (converted)) is over 10000 nM; in test [6], 3240 nM. The activity at 10 µM in test [5] was determined as 1 ± 3%. Besides, in test [4], the Emax turned out to be 54 ± 7%. Besides, the EC50 in test [4] is 234 nM.

With `O=C(c1cn(Cc2ccc(F)cc2)c2ccccc12)N1CCCC1` [compound 13, (1-(4-Fluorobenzyl)-1H-indol-3-yl)(pyrrolidin-1-yl)methanone], the Ki in test [2] (read-out: pKi (converted)) is over 10000 nM. In addition, the Ki in test [6] was 3550 nM. The activity at 10 µM in test [5] came out at 12 ± 2%. Also, in test [4], the Emax stood at 38 ± 13% and the EC50 is 363 nM.

Consider `O=C(c1cn(CC2CCCCC2)c2ccccc12)N1CCCC1` [compound 14, (1-(Cyclohexylmethyl)-1H-indol-3-yl)(pyrrolidin-1-yl)methanone], for which, in test [2] (read-out: pKi (converted)), the Ki was over 10000 nM. Besides, the Ki in test [6] was 1070 nM. In test [4], the Emax amounted to 38 ± 3% and the EC50 is 135 nM.
